Laboratory results taken from patent US4820821A, “Novel pyridazinone-imines and their physiologically tolerated addition salts with acids, their preparation and therapeutic agents containing these compounds” (BASF Aktiengesellschaft, priority 1981, dated 1989).
Structures can show the parent of a compound that is named as a salt. Where two headings read alike, the source gives them in different places.

Experiments:
[1] = tested on: reserpine-induced hypothermia; assay: Antidepressive action: reserpine antagonism, inhibition of reserpine-induced hypothermia of the mouse; format: in vivo, male Swiss mice; settings: for ED50: Mus musculus, read-out: ED 50% (dose which inhibits the reserpine-induced hypothermia of the mouse by 50%); for ED50 / ED 50% (dose which inhibits the reserpine-induced hypothermia of the mouse by 50%): dose based on the base; for R.A. (relative activity), reserpine antagonism: amezinium = 1.00, oral
Protocol: Antidepressants effect dose-dependent inhibition of this hypotherma. The test substances are administered orally 60 minutes before the administration of reserpine.
The dose which effects 50% inhibition of the reserpine-induced hypothermia is determined, as the ED 50%, from the linear regression between log dose (mg/kg) and relative reduction in hypothermia (Δ%).

[2] = tested on: reserpine-induced hypothermia / blood pressure; assay: Quotient ED 50% antidepressive action / ED 20% hypertensive action; format: in vivo, mouse / rat; settings: for Q Increase: Table 2, route of hypertensive test not given; for factor by which the hypertensive dose (ED 20%) is smaller than the antidepressive effective dose (ED 50%): compounds of Table 2; for antidepressive and hypertensive action (in words): in vivo;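 on Q Increase: larger quotient means more selective hypertensive action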
Description: This is evident from the fact that the quotient defined above differs wtih respect to the comparative compounds. […] This arises, inter alia, from the fact that the hypertensive ED 20 constitutes the denominator of the quotient. It is possible that the unforeseeable selective direction of action is attributable to the special substitution,in accordance with the invention, at the 4-imino group.

blood pressure = assay: Effect on the blood pressure: hypertensive action, pithed rat; format: in vivo, male Sprague-Dawley rats; settings: for ED20: Rattus norvegicus, read-out: ED 20% hypertensive action (dose which increases the blood pressure of the pithed rat by 20%); for ED20 / ED 20% hypertensive action (dose which increases the blood pressure of the pithed rat by 20%): dose based on the base; for R.A. (relative activity), hypertensive action: amezinium = 1.00
Protocol: The measurement of the blood pressure in the carotid artery was carried out by means of Statham transducers. The substance was administered in the jugular vein (as an aqueous solution, 1 ml/kg) or intraperitoneally (as a tragacanth suspension, 2 ml/kg). The ED 20% is determined as the dose which increases the blood pressure by 20%.

[3] = Table 1, oral administration 60 min before reserpine
[4] = iv, Table 1, i.v. administration
[5] = ip, Table 1, i.p. administration

O=C(N=c1ccn(-c2ccccc2)nc1)C1CC1 [Example 10, 4-(cyclopropylcarbonyl)-imino-1,4-dihydro-1-phenylpyridazine hydrochloride]
ED50 [1, 3]: 1.41 mg/kg
R.A. (relative activity), reserpine antagonism ([1]; Table 1): 0.52
Q (quotient ED 50% antidepressive action/ED 20% hypertensive action) ([2]; hypertensive test i.v.): 3.04
ED20 (blood pressure; [4]): 0.464 mg/kg
R.A. (relative activity), hypertensive action (blood pressure; Table 1, i.v. administration): 0.11

CCOC(=O)N=c1cnn(-c2ccccc2)c(OC)c1 [Example 69]
ED50 [1, 3]: 4.86 mg/kg
R.A. (relative activity), reserpine antagonism ([1]; Table 1): 0.15
Q (quotient ED 50% antidepressive action/ED 20% hypertensive action) ([2]; hypertensive test i.v.): 2.26
ED20 (blood pressure; [4]): 2.15 mg/kg
R.A. (relative activity), hypertensive action (blood pressure; Table 1, i.v. administration): 0.02

CC(C)NC(=O)N=c1ccn(-c2ccccc2)nc1 [Example 37]
ED50 [1, 3]: 0.7 mg/kg
R.A. (relative activity), reserpine antagonism ([1]; Table 1): 1.05
Q (quotient ED 50% antidepressive action/ED 20% hypertensive action) ([2]; hypertensive test i.v.): 0.70
ED20 (blood pressure; [4]): 1 mg/kg
R.A. (relative activity), hypertensive action (blood pressure; Table 1, i.v. administration): 0.05

O=C(N=c1ccn(-c2ccccc2)nc1)c1ccc(Cl)cc1 [Example 19]
ED50 [1, 3]: 1.35 mg/kg
R.A. (relative activity), reserpine antagonism ([1]; Table 1): 0.54
Q (quotient ED 50% antidepressive action/ED 20% hypertensive action) ([2]; hypertensive test i.p.): < 0.14
ED20 (blood pressure; [5]): > 10 mg/kg
R.A. (relative activity), hypertensive action (blood pressure; Table 1, i.p. administration): < 0.04

COc1cc(=NC(=O)c2ccc(F)cc2)cnn1-c1ccccc1 [Example 79]
ED50 [1, 3]: 1.14 mg/kg
R.A. (relative activity), reserpine antagonism ([1]; Table 1): 0.64
Q (quotient ED 50% antidepressive action/ED 20% hypertensive action) ([2]; hypertensive test i.p.): 0.11
ED20 (blood pressure; [5]): 10 mg/kg
R.A. (relative activity), hypertensive action (blood pressure; Table 1, i.p. administration): 0.04

O=C(N=c1ccn(-c2ccccc2)nc1)c1ccc(F)cc1 [Example 14, 1,4-dihydro-4-(4-fluorobenzoyl)-imino-1-phenylpyridazine hydrochloride]
ED50 ([1]; Table 2, oral administration): 1 mg/kg
R.A. (relative activity), reserpine antagonism ([1]; Table 2): 0.73
Q Increase [2]: 23.81
factor by which the hypertensive dose (ED 20%) is smaller than the antidepressive effective dose (ED 50%) [2]: 24
ED20 (blood pressure; Table 2, route not given): 0.042 mg/kg
R.A. (relative activity), hypertensive action (blood pressure; Table 2): 1.19

Nc1cc[n+](-c2ccccc2)nc1.[O-][Cl+3]([O-])([O-])[O-] [1-phenyl-4-amino-pyridazinium perchlorate, reference compound]
R.A. (relative activity), reserpine antagonism ([1]; Table 1): 1.83
ED 50% (dose which inhibits the reserpine-induced hypothermia of the mouse by 50%) [1, 3]: 0.40 mg/kg
R.A. (relative activity), reserpine antagonism ([1]; Table 2): 1.83
ED 50% (dose which inhibits the reserpine-induced hypothermia of the mouse by 50%) ([1]; Table 2, oral administration): 0.40 mg/kg
Q Increase [2]: 22.22
Q (quotient ED 50% antidepressive action/ED 20% hypertensive action) ([2]; hypertensive test i.p.): 1.60
Q (quotient ED 50% antidepressive action/ED 20% hypertensive action) ([2]; hypertensive test i.p., listed as Example 1 of German Laid-Open Application DOS No. 2,245,248): 1.6
Q (quotient ED 50% antidepressive action/ED 20% hypertensive action) ([2]; hypertensive test i.v.): 22.22
Q (quotient ED 50% antidepressive action/ED 20% hypertensive action) ([2]; hypertensive test i.v., listed as Example 1 of German Laid-Open Application DOS No. 2,245,248): 22.2
antidepressive and hypertensive action (in words) [2]: have an antidepressive and hypertensive action
R.A. (relative activity), hypertensive action (blood pressure; Table 1, i.p. administration): 1.48
ED 20% hypertensive action (dose which increases the blood pressure of the pithed rat by 20%) (blood pressure; Table 1, i.p. administration): 0.25 mg/kg
R.A. (relative activity), hypertensive action (blood pressure; Table 1, i.v. administration): 2.78
ED 20% hypertensive action (dose which increases the blood pressure of the pithed rat by 20%) (blood pressure; Table 1, i.v. administration): 0.018 mg/kg
R.A. (relative activity), hypertensive action (blood pressure; Table 2): 2.78
ED 20% hypertensive action (dose which increases the blood pressure of the pithed rat by 20%) (blood pressure; Table 2, route not given): 0.018 mg/kg

COc1cc(N)cn[n+]1-c1ccccc1 [Amezinium, 1-phenyl-4-amino-6-methoxypyridazinium methosulfate, reference compound]
ED50 [1, 3]: 0.733 mg/kg
R.A. (relative activity), reserpine antagonism ([1]; Table 1): 1.00
R.A. (relative activity), reserpine antagonism ([1]; Table 2): 1.00
Q Increase [2]: 14.66
factor by which the hypertensive dose (ED 20%) is smaller than the antidepressive effective dose (ED 50%) [2]: 15
Q (quotient ED 50% antidepressive action/ED 20% hypertensive action) ([2]; hypertensive test i.p.): 1.98
Q (quotient ED 50% antidepressive action/ED 20% hypertensive action) ([2]; hypertensive test i.v.): 14.66
Q (quotient ED 50% antidepressive action/ED 20% hypertensive action) ([2]; hypertensive test i.v., listed as amezinium): 14.7
antidepressive and hypertensive action (in words) [2]: have an antidepressive and hypertensive action
ED20 (blood pressure; [5]): 0.37 mg/kg
ED20 (blood pressure; [4]): 0.05 mg/kg
ED20 (blood pressure; Table 2, route not given): 0.05 mg/kg
R.A. (relative activity), hypertensive action (blood pressure; Table 1, i.p. administration): 1.00
R.A. (relative activity), hypertensive action (blood pressure; Table 1, i.v. administration): 1.00
R.A. (relative activity), hypertensive action (blood pressure; Table 2): 1.00

CNC(=O)N=c1ccn(-c2ccccc2)nc1 [Example 31, 1,4-dihydro-4-(methylcarbamyl)-imino-1-phenylpyridazine]
ED50 [1, 3]: 0.28 mg/kg
R.A. (relative activity), reserpine antagonism ([1]; Table 1): 2.62
factor by which the quotient of antidepressive action and hypertensive action is smaller than in the case of amezinium ([2]; compounds of Table 1): 77
Q (quotient ED 50% antidepressive action/ED 20% hypertensive action) ([2]; hypertensive test i.v.): 0.19
ED20 (blood pressure; [4]): 1.47 mg/kg
R.A. (relative activity), hypertensive action (blood pressure; Table 1, i.v. administration): 0.03

O=C(N=c1ccn(-c2ccccc2)nc1)c1ccccc1 [Example 16, 4-benzoylimino-1,4-dihydro-1-phenylpyridazine]
ED50 ([1]; Table 2, oral administration): 1.33 mg/kg
R.A. (relative activity), reserpine antagonism ([1]; Table 2): 0.55
Q Increase [2]: 28.91
ED20 (blood pressure; Table 2, route not given): 0.046 mg/kg
R.A. (relative activity), hypertensive action (blood pressure; Table 2): 1.09

CCC(=O)N=c1ccn(-c2ccccc2)nc1 [Example 3, 1,4-dihydro-1-phenyl-4-(propionylimino)-pyridazine hydrochloride]
ED50 [1, 3]: 0.33 mg/kg
R.A. (relative activity), reserpine antagonism ([1]; Table 1): 2.22
Q (quotient ED 50% antidepressive action/ED 20% hypertensive action) ([2]; hypertensive test i.v.): 1.65
ED20 (blood pressure; [4]): 0.2 mg/kg
R.A. (relative activity), hypertensive action (blood pressure; Table 1, i.v. administration): 0.25

O=C(Cc1ccccc1)N=c1ccn(-c2ccccc2)nc1 [Example 9, 1,4-dihydro-1-phenyl-4-[(phenylacetyl)-imino]-pyridazine hydrochloride]
ED50 ([1]; Table 2, oral administration): 3.98 mg/kg
R.A. (relative activity), reserpine antagonism ([1]; Table 2): 0.18
Q Increase [2]: 63.17
ED20 (blood pressure; Table 2, route not given): 0.063 mg/kg
R.A. (relative activity), hypertensive action (blood pressure; Table 2): 0.79

COc1cc(=NC(=O)c2ccccc2Cl)cnn1-c1ccccc1 [Example 64]
ED50 [1, 3]: 1.27 mg/kg
R.A. (relative activity), reserpine antagonism ([1]; Table 1): 0.58
Q (quotient ED 50% antidepressive action/ED 20% hypertensive action) ([2]; hypertensive test i.p.): < 0.13
ED20 (blood pressure; [5]): > 10 mg/kg
R.A. (relative activity), hypertensive action (blood pressure; Table 1, i.p. administration): < 0.04

COc1cc(=NC(=O)c2cccc(C(F)(F)F)c2)cnn1-c1ccccc1 [Example 77]
ED50 [1, 3]: 3.4 mg/kg
R.A. (relative activity), reserpine antagonism ([1]; Table 1): 0.22
Q (quotient ED 50% antidepressive action/ED 20% hypertensive action) ([2]; hypertensive test i.p.): 1.08
ED20 (blood pressure; [5]): 3.16 mg/kg
R.A. (relative activity), hypertensive action (blood pressure; Table 1, i.p. administration): 0.12

CCOC(=O)N=c1ccn(-c2ccccc2)nc1 [Example 29, 1,4-dihydro-4-(ethoxycarbonyl)-imino-1-phenylpyridazine hydrochloride]
ED50 [1, 3]: 0.86 mg/kg
R.A. (relative activity), reserpine antagonism ([1]; Table 1): 0.85
Q (quotient ED 50% antidepressive action/ED 20% hypertensive action) ([2]; hypertensive test i.v.): 4.00
ED20 (blood pressure; [4]): 0.215 mg/kg
R.A. (relative activity), hypertensive action (blood pressure; Table 1, i.v. administration): 0.23

O=C(N=c1ccn(-c2ccccc2)nc1)OCc1ccccc1 [Example 34]
ED50 [1, 3]: 0.71 mg/kg
R.A. (relative activity), reserpine antagonism ([1]; Table 1): 1.03
Q (quotient ED 50% antidepressive action/ED 20% hypertensive action) ([2]; hypertensive test i.v.): 7.10
ED20 (blood pressure; [4]): 0.1 mg/kg
R.A. (relative activity), hypertensive action (blood pressure; Table 1, i.v. administration): 0.50

COc1cc(=NC(=O)Oc2ccccc2)cnn1-c1ccccc1 [Example 58, 1,4-dihydro-6-methoxy-4-(phenoxycarbonyl)-imino-1-phenylpyridazine]
ED50 ([1]; Table 2, oral administration): 5.62 mg/kg
R.A. (relative activity), reserpine antagonism ([1]; Table 2): 0.13
Q Increase [2]: 56.20
ED20 (blood pressure; Table 2, route not given): 0.1 mg/kg
R.A. (relative activity), hypertensive action (blood pressure; Table 2): 0.50
